Where two headings read alike, the source gives them in different places.
Experiments:
mast cells = details: cited from earlier work
bronchoconstriction = details: guinea pigs passively sensitized with rabbit IgG, intravenously; cited from earlier work
[1] = tested on: leukotriene D4 (LTD4) generation; details: mechanism of action; cited from earlier work
[2] = tested on: 2,4-dinitro-1 -fluorobenzene-induced contact sensitivity; details: intravenous, cited from earlier work
cyclo-oxygenase products = details: whole tissue studies; cited from earlier work
[3] = tested on: IgE-mediated constriction; details: actively sensitized guinea pigs, cited from earlier work
[4] = stability of amlexanox in aqueous solution; assay type: physicochemical; details: under certain conditions, solution pH greater than about 8.0
Text: (§1) The molecule contains a free carboxylate group, and the water solubility of amlexanox can be increased by raising the pH of the dissolution solution. However, caution is necessary using this approach as degradation of amlexanox may take place at high pH. […] Thus the formulation of a viscous, mucoadhesive solution of amlexanox which is also stable represented a major challenge.

[5] = tested on: IgE-mediated bronchoconstriction; details: rats, cited from earlier work
[6] = water solubility of amlexanox; assay type: physicochemical
Text: as §1

[7] = tested on: passive cutaneous anaphylaxis mediated by IgE; details: rat, cited from earlier work
allergic reactions = details: variety of in vivo models; cited from earlier work
Arthus reaction = details: cited from earlier work
[8] = tested on: platelet activating factor-induced bronchoconstriction; details: guinea pigs, intravenous doses of 5 and 20 mg/kg; cited from earlier work
tuberculin reaction = details: intravenous, cited from earlier work
[9] = tested on: acetylcholine-induced bronchoconstriction; details: text b108; cited from earlier work
[10] = tested on: leukotriene D4-induced bronchoconstriction; details: guinea pigs, intravenous doses of 5 and 20 mg/kg; cited from earlier work
airway smooth muscle = details: mechanism of action; cited from earlier work
[11] = tested on: histamine-induced bronchoconstriction; details: cited from earlier work
[12] = tested on: IgG1-mediated bronchoconstriction; details: actively sensitized guinea pigs, cited from earlier work
inflammation = details: in vivo; cited from earlier work
[13] = tested on: cyclic nucleotide phosphodiesterase; details: cited from earlier work
leukotrienes = details: in vitro; cited from earlier work

CC(C)c1ccc2oc3nc(N)c(C(=O)O)cc3c(=O)c2c1 [Amlexanox, 2-amino-7-(1 methylethyl)-5-oxo-5H[1]benzopyrano[2,3-b]pyridine-3-carboxylic acid]
release of inflammatory mediators from mast cells (mast cells; antigen-antibody induced release, ionophore induced release): Potent inhibitor of the release of inflammatory mediators from mast cells | immunologically-stimulated release of histamine from mast cells (mast cells; mechanism of action, in vivo and in vitro studies): Inhibition | ED50, inhibition of bronchoconstriction (bronchoconstriction): 9 mg/kg | leukotriene D4 (LTD4) generation [1]: Inhibition | inhibition of contact sensitivity ([2]; 5 mg/kg): not | inhibition of contact sensitivity ([2]; 20 mg/kg): significant inhibition | generation of cyclo-oxygenase products (cyclo-oxygenase products): Does not inhibit generation of cyclo-oxygenase products in whole | inhibition of IgE-mediated constriction ([3]; 20 mg/kg, another study): significant inhibition | ED50, inhibition of IgE-mediated constriction ([3]; one study): 14.5 mg/kg | degradation in aqueous solution [4]: degrade slowly | suppression of IgE-mediated bronchoconstriction ([5]; intravenous dose of 1 mg/kg): significantly suppressed | suppression of IgE-mediated bronchoconstriction ([5]; oral dose of 10 mg/kg): significantly suppressed | water solubility [6]: poorly water soluble | ED50, inhibition of passive cutaneous anaphylaxis ([7]; intravenous): 0.032 mg/kg | ED50, inhibition of passive cutaneous anaphylaxis ([7]; oral): 0.73 mg/kg | anti-allergic activity (allergic reactions): Potent ant-allergic agent demonstrated in a variety of in vivo models | inhibition of the Arthus reaction (Arthus reaction; intravenous doses of 5 and 20 mg/kg given immediately after antigen challenge): moderate activity | inhibition of the Arthus reaction (Arthus reaction; oral doses of 50 and 10 mg/kg given 1 or 3 hours after antigen challenge): moderate activity | suppression of bronchoconstriction induced by platelet activating factor [8]: dose-related suppression | inhibition of the tuberculin reaction (tuberculin reaction; 5 mg/kg): not | inhibition of the tuberculin reaction (tuberculin reaction; 20 mg/kg): significant inhibition | effect on acetylcholine-induced bronchoconstriction [9]: not active | suppression of bronchoconstriction induced by leukotriene D4 [10]: dose-related suppression | contractile response of airway smooth muscle to LTD4 (airway smooth muscle): Antagonism | bronchoconstriction induced by histamine ([11]; Table 1): Has no effect on bronchoconstriction induced by histamine or | effect on histamine-induced bronchoconstriction ([11]; text b108): slightly suppressed | ED50, IgG1-mediated bronchoconstriction ([12]; intravenous): 8.2 mg/kg | ED50, IgG1-mediated bronchoconstriction ([12]; oral): 160 mg/kg | anti-inflammatory activity (inflammation): Weak anti-inflammatory activity in vivo | inhibition of cyclic nucleotide phosphodiesterase [13]: Potent inhibitor of cyclic nucleotide phosphodiesterase | formation of leukotrienes (leukotrienes): Inhibits formation of leukotrienes, in vitro

From patent US20020103219A1, “Stable viscous liquid formulations of amlexanox for the prevention and treatment of mucosal diseases and disorders” (priority 2000, published 2002)
